One block for each compound: values may come before it.
Key:
[1] = molecular target: T1, SV2A (Macaca fascicularis, UniProt Q4R4X3); test: Displacement PET studies of [^18F]UCB-H; type: in vivo, cynomolgus monkeys (Macaca fascicularis)
T1 construct: The current study evaluates [^18F]UCB-H pharmacokinetics in healthy NHPs; from tissue; host or cells: brain of living healthy cynomolgus monkeys (in vivo PET)
Procedure: All four non-human primates (NHP) underwent a 2-h (2 h) test and retest PET scan; two NHP underwent an additional 4-h (4 h) retest PET scan. Three NHP underwent one 4-h (4 h) displacement PET scan. Arterial blood sampling was performed during test and retest scans with PET imaging spaced by at least 3 weeks between each scan. To this end, the femoral artery opposite to the saphenous vein used for radioligand injection was cannulated. For the 2-h (2 h) scans, we collected in total 28 blood samples of 1 mL: 16 samples during the first 5 min followed by […] every 5 min and […] every 10 min. For the 4 h scans, we collected an additional 6 samples every 20 min during the last two hours (34 samples in total). Larger samples (2 – 3 mL) were collected at 5, 15, 30, 60, 90, 120 min (2 h) and at 180, 240 min (4 h) for metabolite analysis. Displacement of [^18F]UCB-H was done by intravenous (IV) administration 90 min after [^18F]UCB-H injection of a bolus of 30 mg/kg LEV, or of 80 µg/kg (≈250 nmol/kg) or 5 mg/kg (≈15 µmol/kg) of cold [^19F]-UCB-H. Full experimental design of all NHP is outlined in Additional file 1: Table 1.
Solvents and LEV (C8H14N2O2; MM 170.21 g/mol) were obtained at Sigma-Aldrich® (France), and [^19F]-UCB-H (C16H12F4N2O; MM 324.28 g/mol) was synthesised as previously described. Injectable solutions of [^19F]-UCB-H for displacement studies were prepared with a mixture of Tetrahydrofuran (THF), Médialipide® and glucose at 2.5% as previously described. LEV was dissolved in a glucose solution of 2.5% to reach a concentration of 90 mg/mL.
PET image analysis was performed using PMOD software version 3.8 (PMOD Technologies Ltd., Zurich, Suisse). After individual co-registration of PET-MR images, a cynomolgus atlas published by Ballanger and coworkers was normalized to PET images to extract time activity curves in different brain regions. Volumes of interest (VOI) were cerebral white matter (16.7 cm^3), striatum (0.24 cm^3), thalamus (0.89 cm^3), cerebellum (3.83 cm^3), frontal—(2.50 cm^3), parietal—(5.35 cm^3), and temporal (8.22 cm^3) cortex, and whole brain (72.2 cm^3) as a composite region of all regions in the atlas. [^18F]UCB-H pharmacokinetics were evaluated by analyzing the time activity curves of the test- and retest scans using 1- and 2-tissue compartment models (unconstrained and constrained with global K1/k2 coupled fit across all regions, further referred to as 2TCM and 2TCM-c), and Logan graphical analysis with a fixed t* at 60 min [33] using the arterial plasma input function corrected for radio-metabolites to derive the volume of distribution in each region. Percentage standard error (%SE) was estimated from the theoretical parameter covariance matrix. Only reliable estimates (%SE less than 25%) were included in the current analyses. For the three drug studies, percent displacement of the total activity in the whole brain was estimated relative to an average baseline constructed from the two 4 h baseline studies. Briefly, Standardized Uptake Value (SUV) time activity curves (TACs) were calculated for the two baseline and the three displacement studies. Then, each curve was normalized to the SUV at t = 90 min, corresponding to the timeframe immediately before the administration of the drugs in the displacement studies. Baseline curves were averaged and the percent displacement of total activity was calculated as (baseline-displacement)/baseline at a given time post drug administration (see “Results”).

[2] = system: SV2A; design: method as in PMID 30084043, PMID 31728839; conditions: cited from earlier work
[3] = molecular target: SV2A; design: method as in PMID 31728839; conditions: human brain; read-out: in vitro Ki; cited from earlier work
[4] = molecular target: SV2A; design: method as in PMID 26848175; conditions: NHP; read-out: in vivo KD; cited from earlier work

T1 sequence (Q4R4X3 whole entry): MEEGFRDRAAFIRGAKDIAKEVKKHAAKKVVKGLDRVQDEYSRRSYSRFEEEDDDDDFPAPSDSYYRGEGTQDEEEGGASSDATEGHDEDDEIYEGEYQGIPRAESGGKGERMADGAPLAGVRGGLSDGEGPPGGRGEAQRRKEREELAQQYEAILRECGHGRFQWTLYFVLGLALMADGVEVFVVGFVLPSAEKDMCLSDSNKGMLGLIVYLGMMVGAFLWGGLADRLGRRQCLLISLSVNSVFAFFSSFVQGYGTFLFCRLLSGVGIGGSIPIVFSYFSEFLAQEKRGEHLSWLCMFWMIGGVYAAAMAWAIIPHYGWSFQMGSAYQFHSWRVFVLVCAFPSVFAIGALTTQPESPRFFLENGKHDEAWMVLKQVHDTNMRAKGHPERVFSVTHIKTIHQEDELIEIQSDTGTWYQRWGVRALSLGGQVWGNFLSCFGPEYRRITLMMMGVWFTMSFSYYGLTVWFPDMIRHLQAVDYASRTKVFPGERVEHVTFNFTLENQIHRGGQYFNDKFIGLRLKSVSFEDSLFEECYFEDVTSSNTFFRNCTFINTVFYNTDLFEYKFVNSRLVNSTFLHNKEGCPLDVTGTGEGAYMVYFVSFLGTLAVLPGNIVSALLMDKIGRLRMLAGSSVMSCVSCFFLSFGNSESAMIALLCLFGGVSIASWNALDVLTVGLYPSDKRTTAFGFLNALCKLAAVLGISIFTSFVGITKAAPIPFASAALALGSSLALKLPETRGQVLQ

Structure (SMILES): CC[C@@H](C(N)=O)N1CCCC1=O [LEV, levetiracetam, reference compound]
- displacement of [^18F]UCB-H total uptake ([1]; 30 mg/kg i.v. at 90 min, estimated 150 min (2.5 h) after injection): ~ 40%
- receptor occupancy at 30 mg/kg ([1]; cynomolgus monkey, iv, read-out: SV2A occupancy): 75 to 80%

Structure (SMILES): Cc1cnccc1CN1C[C@@H](c2cc(F)cc([18F])c2)CC1=O [[^18F]MNI-1126]
- affinity [2]: high affinity

Structure (SMILES): Cc1cnccc1CN1CC(c2cc(F)cc([18F])c2)CC1=O (stereo not drawn) [[^18F]MNI-1128]
- affinity [2]: low affinity

- displacement of [^18F]UCB-H total uptake ([1]; 5 mg/kg i.v. at 90 min, estimated 35 min after injection of cold compound): 50%
- SV2A occupancy expected ([1]; 5 mg/kg, KD 30 nM): > 98%
- maximum free concentration in brain ([1]; after 5.0 mg/kg, based on brain uptake curves and fND ~6%): ~2.5 µM
Structure (SMILES): O=C1CC(c2cc(F)c(F)c(F)c2)CN1Cc1ccncc1F (stereo not drawn) [[^19F]UCB-H]
- Ki [3]: 9 nM
- Kd [4]: 30 nM

Source: PMC8026785, “The pharmacokinetics of [^18F]UCB-H revisited in the healthy non-human primate brain” (EJNMMI Research, 2021)
